From patent publication US9181264B2, “Fused heteroaryls and their uses” (Hutchison MediPharma Limited, priority 2011, dated 2015)

What was measured:
[1] = target: T1, PI3Kα kinase (Homo sapiens, UniProt P42336); assay: PI3Ka Transcreener ADP assay (fluorescence polarization); assay type: biochemical; details: 10 μM ATP, 30 μmol/L lipid substrate; read-out: IC50, inhibition of PI3Kα kinase
T1 construct: purchased Invitrogen PV4788
In short: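 Transcreener ADP FP assay with PI3Kα (0.2 ng/μL), 30 μmol/L lipid substrate (PIP2) and 10 μM ATP (final) in HEPES pH 7.5 buffer with MgCl2, 0.03% CHAPS, 2% DMSO. 60 min reaction at room temperature, then ADP detection 1.5 h (ex 610/em 670 nm). ADP from standard curve; IC50 fitted.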

[2] = target: T2, mTOR kinase (Homo sapiens, UniProt P42345); assay: mTOR LanthaScreen TR-FRET assay; assay type: biochemical; details: 10 μmol/L ATP, GFP-4EBP1 substrate; read-out: IC50, inhibition of mTOR
T2 construct: purchased Invitrogen PV4753
T2 sequence (P42345 1360-2549 limits assumed): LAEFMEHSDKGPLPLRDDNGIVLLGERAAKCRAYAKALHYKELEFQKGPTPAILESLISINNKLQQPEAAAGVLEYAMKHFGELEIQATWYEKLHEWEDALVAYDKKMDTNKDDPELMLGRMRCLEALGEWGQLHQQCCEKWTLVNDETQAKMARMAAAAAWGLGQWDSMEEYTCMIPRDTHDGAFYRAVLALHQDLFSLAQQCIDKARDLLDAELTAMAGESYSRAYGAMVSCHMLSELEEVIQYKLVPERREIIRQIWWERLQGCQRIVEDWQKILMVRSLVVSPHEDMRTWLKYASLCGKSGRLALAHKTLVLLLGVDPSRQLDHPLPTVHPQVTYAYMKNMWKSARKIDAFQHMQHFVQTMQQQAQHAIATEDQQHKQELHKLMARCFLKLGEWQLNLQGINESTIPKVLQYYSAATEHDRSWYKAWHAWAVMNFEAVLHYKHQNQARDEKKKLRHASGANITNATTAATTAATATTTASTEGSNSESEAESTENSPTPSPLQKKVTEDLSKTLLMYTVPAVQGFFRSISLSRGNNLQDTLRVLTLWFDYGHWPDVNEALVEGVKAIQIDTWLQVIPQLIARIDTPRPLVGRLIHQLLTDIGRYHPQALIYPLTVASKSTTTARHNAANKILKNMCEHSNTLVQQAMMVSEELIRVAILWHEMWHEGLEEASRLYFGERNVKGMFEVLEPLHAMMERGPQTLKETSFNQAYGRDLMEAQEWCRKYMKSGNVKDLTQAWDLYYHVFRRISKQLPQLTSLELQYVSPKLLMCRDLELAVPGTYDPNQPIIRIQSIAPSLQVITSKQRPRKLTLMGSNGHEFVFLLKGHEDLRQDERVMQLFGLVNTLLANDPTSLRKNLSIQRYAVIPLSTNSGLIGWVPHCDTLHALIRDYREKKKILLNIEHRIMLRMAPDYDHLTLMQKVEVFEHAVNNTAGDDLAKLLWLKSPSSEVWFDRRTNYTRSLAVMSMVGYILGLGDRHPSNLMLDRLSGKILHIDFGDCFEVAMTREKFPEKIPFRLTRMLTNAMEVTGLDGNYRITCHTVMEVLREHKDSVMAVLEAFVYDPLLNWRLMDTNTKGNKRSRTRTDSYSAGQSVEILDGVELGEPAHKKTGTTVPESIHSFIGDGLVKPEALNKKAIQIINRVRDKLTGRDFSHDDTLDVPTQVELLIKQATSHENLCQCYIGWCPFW
Method: Compounds are tested using LanthaScreen TR-FRET Assay. The kinase reaction is completed in 384-well black plate (Corning, Cat. 3676). The final conditions for kinase assay are: 10 μmol/L of ATP, 0.2 ng/μL of mTOR kinase, 0.4 μmol/L of GFP-4EBP1 substrate and assay buffer (50 mmol/L of HEPES, pH 7.5, 0.01% of Tween 20, 1 mmol/L of EGTA, 10 mmol/L of MnCl2, 2 mmol/L of DTT and 1% DMSO).
To each well, 2.5 μL of test compounds in 4% DMSO and 2.5 μL of 0.8 ng/μL mTOR kinase (Invitrogen, PV4753) diluted in assay buffer are added. The reaction is initiated by the addition of 5 μL mixture of 0.8 μmol/L GFP-4EBP1 Substrate (Invitorgen, PV4759) and 20 μmol/L ATP mixtures. The mixture is incubated at room temperature for 60 minutes. 10 μL of 20 mmol/L EDTA and 4 nmol/L Tb-anti-p4EBP1 [pThr46] antibody (Invitrogen, PV4755) diluted in TR-FRET dilution buffer are added and incubated for an additional 1 hour. The plate is then read in a BioTek Synergy2 Reader at excitation of 340 nm and emission of 490 nm and 528 nm.
The inhibition of test compound is calculated based on the ratio of 528 nm/490 nm. IC50 of test compound is obtained using XLfit 2.0 software.

T1 sequence (P42336 whole entry): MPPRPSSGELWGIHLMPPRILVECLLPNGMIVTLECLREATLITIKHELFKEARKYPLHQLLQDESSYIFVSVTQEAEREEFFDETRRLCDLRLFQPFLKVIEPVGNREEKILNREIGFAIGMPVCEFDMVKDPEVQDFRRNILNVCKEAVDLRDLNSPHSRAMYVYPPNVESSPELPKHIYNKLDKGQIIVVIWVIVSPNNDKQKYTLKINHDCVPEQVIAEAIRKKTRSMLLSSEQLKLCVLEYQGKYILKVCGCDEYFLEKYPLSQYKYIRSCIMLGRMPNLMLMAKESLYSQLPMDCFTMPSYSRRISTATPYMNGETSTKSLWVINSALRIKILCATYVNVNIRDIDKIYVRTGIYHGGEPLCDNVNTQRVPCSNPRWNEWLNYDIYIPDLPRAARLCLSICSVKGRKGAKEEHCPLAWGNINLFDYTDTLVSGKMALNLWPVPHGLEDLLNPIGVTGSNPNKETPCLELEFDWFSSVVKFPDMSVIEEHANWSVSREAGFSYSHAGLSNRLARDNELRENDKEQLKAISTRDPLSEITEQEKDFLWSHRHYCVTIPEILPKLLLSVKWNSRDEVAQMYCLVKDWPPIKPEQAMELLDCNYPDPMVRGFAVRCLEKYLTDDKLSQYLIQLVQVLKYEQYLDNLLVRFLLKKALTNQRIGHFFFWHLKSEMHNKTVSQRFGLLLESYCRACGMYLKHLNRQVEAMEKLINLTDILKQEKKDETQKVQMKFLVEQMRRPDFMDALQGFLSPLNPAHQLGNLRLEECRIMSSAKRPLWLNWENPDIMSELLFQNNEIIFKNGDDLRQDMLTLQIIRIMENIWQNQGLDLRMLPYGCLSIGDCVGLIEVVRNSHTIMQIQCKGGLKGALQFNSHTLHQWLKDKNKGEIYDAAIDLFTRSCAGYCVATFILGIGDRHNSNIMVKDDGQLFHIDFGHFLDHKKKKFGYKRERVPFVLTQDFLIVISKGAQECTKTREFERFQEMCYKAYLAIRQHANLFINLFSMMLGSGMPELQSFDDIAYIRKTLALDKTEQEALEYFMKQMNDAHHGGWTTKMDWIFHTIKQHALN
T1 sequence (P27986 whole entry partner): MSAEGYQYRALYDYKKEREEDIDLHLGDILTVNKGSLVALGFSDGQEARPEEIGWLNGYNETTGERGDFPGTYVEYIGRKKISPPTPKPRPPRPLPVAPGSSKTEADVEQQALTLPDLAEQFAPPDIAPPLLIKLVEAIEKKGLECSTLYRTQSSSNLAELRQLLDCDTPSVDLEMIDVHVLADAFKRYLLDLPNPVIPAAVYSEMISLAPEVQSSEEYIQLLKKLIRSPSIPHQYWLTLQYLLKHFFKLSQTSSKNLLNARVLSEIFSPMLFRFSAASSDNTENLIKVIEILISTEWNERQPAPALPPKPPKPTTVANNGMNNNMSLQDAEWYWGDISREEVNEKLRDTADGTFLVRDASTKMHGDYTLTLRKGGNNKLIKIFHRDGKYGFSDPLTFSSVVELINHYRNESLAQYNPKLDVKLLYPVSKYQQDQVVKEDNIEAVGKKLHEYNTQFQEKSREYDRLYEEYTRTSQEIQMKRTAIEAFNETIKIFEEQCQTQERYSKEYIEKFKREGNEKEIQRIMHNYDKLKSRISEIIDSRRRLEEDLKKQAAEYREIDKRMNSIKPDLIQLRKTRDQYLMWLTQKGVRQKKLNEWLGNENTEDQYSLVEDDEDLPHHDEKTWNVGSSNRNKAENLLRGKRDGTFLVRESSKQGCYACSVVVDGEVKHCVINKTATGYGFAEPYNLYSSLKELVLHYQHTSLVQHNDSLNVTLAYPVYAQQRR

| IC50 [1] [nM] | IC50 [2] [nM] | SMILES |
| --- | --- | --- |
| < 100 | < 100 | N#Cc1cccc(-c2nnc3cnc4ccc(-c5ccc6nc(N)sc6c5)cc4n23)c1 [Compound 63] |
| < 100 | < 100 | CCC(=O)N1CCC(n2nnc3cnc4ccc(-c5cnc(N)c(C(F)(F)F)c5)nc4c32)CC1 [Compound 6] |
| < 100 | < 100 | COc1cc(-c2ccc3ncc4nnc(-c5ccc(C(C)(C)C#N)cc5)n4c3c2)cnc1N [Compound 72] |
| < 100 | < 100 | COCC(=O)N1CCC(n2nnc3cnc4ccc(-c5cnc(N)c(C(F)(F)F)c5)nc4c32)CC1 [Compound 7] |
| < 100 | < 100 | CCOc1cc(-c2ccc3ncc4nnc(-c5ccc(C(C)(C)C#N)cc5)n4c3c2)cnc1N [Compound 75] |
| < 100 | < 100 | COc1ncc(-c2ccc3ncc4nnc(C)n4c3c2)cc1NS(=O)(=O)c1ccc(F)cc1F [Compound 147, 2,4-difluoro-N-(2-methoxy-5-(1-methyl-[1,2,4]triazolo[4,3-a]quinoxalin-8-yl)pyridin-3-yl)benzenesulfonamide] |
| < 100 | < 100 | CC(C)(C#N)c1ccc(-c2nnc3cnc4ccc(-c5ccc(N)nc5)cc4n23)cc1 [Compound 50] |
| < 100 | < 100 | CCC(=O)N1CCC(n2c(C)nc3cnc4ccc(-c5cnc(N)c(C(F)(F)F)c5)nc4c32)CC1 [Compound 120] |
| < 100 | < 100 | CC1(CN2CCC(n3nnc4cnc5ccc(-c6cnc(N)c(C(F)(F)F)c6)nc5c43)CC2)COC1 [Compound 44] |
| < 100 | < 100 | CS(=O)(=O)N1CCC(n2cnc3cnc4ccc(-c5cnc(N)c(C(F)(F)F)c5)nc4c32)CC1 [Compound 103] |
| < 100 | < 100 | Nc1ncc(-c2ccc3ncc4ncn(C5CCN(C(=O)C6CC6)CC5)c4c3n2)cc1C(F)(F)F [Compound 88, (4-(8-(6-amino-5-(trifluoromethyl)pyridine-3-yl)-1H-imidazo[4,5-c][1,5]naphthyridin-1-yl)piperidin-1-yl)(cyclopropyl)methanone] |
| < 100 | < 100 | CC(C)C(=O)N1CCC(n2nnc3cnc4ccc(-c5cnc(N)c(C(F)(F)F)c5)nc4c32)CC1 [Compound 30, 1-(4-(8-(6-amino-5-(trifluoromethyl)pyridin-3-yl)-1H-[1,2,3]triazolo[4,5-c][1,5]naphthyridin-1-yl)piperidin-1-yl)-2-methylpropan-1-one] |
| < 100 | < 100 | CC1(CN2CCC(n3cnc4cnc5ccc(-c6cnc(N)c(C(F)(F)F)c6)nc5c43)CC2)COC1 [Compound 105] |
| < 100 | < 100 | Cc1cc(-c2ccc3ncc4nnc(-c5ccc(C(C)(C)C#N)cc5)n4c3c2)cnc1N [Compound 58] |
| < 100 | < 100 | CC(C)(C#N)c1ccc(-c2nnc3cnc4ccc(-c5ccc6nc(N)sc6c5)cc4n23)cc1 [Compound 52] |
| < 100 | < 100 | C[C@@H](O)C(=O)N1CCC(n2nnc3cnc4ccc(-c5cnc(N)c(C(F)(F)F)c5)nc4c32)CC1 [Compound 21, (R)-1-(4-(8-(6-amino-5-(trifluoromethyl)pyridin-3-yl)-1H-[1,2,3]triazolo[4,5-c][1,5]naphthyridin-1-yl)piperidin-1-yl)-2-hydroxypropan-1-one] |
| < 100 | < 100 | CCC(=O)N1CCC(n2cnc3cnc4ccc(-c5cnc(N)c(C(F)(F)F)c5)nc4c32)CC1 [Compound 96] |
| < 100 | < 100 | COc1ncc(-c2ccc3ncc4nnn(C)c4c3n2)cc1NS(=O)(=O)c1ccc(F)cc1F [Compound 154] |
| < 100 | < 100 | C[C@H](O)C(=O)N1CCC(n2cnc3cnc4ccc(-c5cnc(N)c(C(F)(F)F)c5)nc4c32)CC1 [Compound 107] |

| IC50 [1] [nM] | IC50 [2] [nM] | SMILES |
| --- | --- | --- |
| < 100 | < 100 | CC(C)(C#N)c1ccc(-c2nnc3cnc4ccc(-c5ccc6nc(N)oc6c5)cc4n23)cc1 [Compound 55] |
| < 100 | < 100 | CC(C)(C#N)c1ccc(-n2nnc3cnc4ccc(-c5cnc(N)c(C(F)(F)F)c5)nc4c32)cn1 [Compound 16] |
| < 100 | < 100 | CC(C)(O)C(=O)N1CCC(n2nnc3cnc4ccc(-c5cnc(N)c(C(F)(F)F)c5)nc4c32)CC1 [Compound 26] |
| < 100 | < 100 | CC(C)(C#N)c1ccc(-n2nnc3cnc4ccc(-c5cnc(N)c(C(F)(F)F)c5)nc4c32)cc1 [Compound 17] |
| < 100 | < 100 | CC(C)(C#N)c1ccc(-c2nnc3cnc4ccc(-c5cnc6[nH]ncc6c5)cc4n23)cc1 [Compound 53] |
| < 100 | < 100 | COc1ncc(-c2ccc3ncc4nnc(C)n4c3c2)cc1NS(=O)(=O)C(F)(F)F [Compound 155] |
| < 100 | < 100 | Cc1nc2cnc3ccc(-c4cnc(N)c(C(F)(F)F)c4)nc3c2n1C1CCN(C(=O)[C@H](C)O)CC1 [Compound 122] |
| < 100 | < 100 | COc1ncc(-c2ccc3ncc4ncn(CCN(C)C)c4c3n2)cc1NS(=O)(=O)C(F)(F)F [Compound 178] |
| < 100 | < 100 | COc1ncc(-c2ccc3ncc4nc(C)n(C)c4c3n2)cc1NS(=O)(=O)c1ccc(F)cc1F [Compound 151] |
| < 100 | < 100 | COc1ncc(-c2ccc3ncc4nnc(C)n4c3c2)cc1NS(=O)(=O)c1ccccc1F [Compound 180] |
| < 100 | < 100 | Nc1ncc(-c2ccc3ncc4nnn(Cc5ccc(F)cc5)c4c3c2)cn1 [Compound 12] |
| < 100 | < 100 | COc1ncc(-c2ccc3ncc4c(c3c2)n(C)c(=O)n4C)cc1NS(=O)(=O)c1ccc(F)cc1F [Compound 160] |
| < 100 | < 100 | COc1ncc(-c2ccc3ncc4nnc(-c5ccc(F)cc5)n4c3c2)cc1NS(C)(=O)=O [Compound 152] |
| < 100 | < 100 | CCCC(=O)N1CCC(n2nnc3cnc4ccc(-c5cnc(N)c(C(F)(F)F)c5)nc4c32)CC1 [Compound 35] |
| < 100 | < 100 | CC(=O)N1CCC(n2cnc3cnc4ccc(-c5cnc(N)c(C(F)(F)F)c5)nc4c32)CC1 [Compound 102] |
| < 100 | < 100 | CCc1nc2cnc3ccc(-c4cnc(N)c(C(F)(F)F)c4)nc3c2n1C1CCOCC1 [Compound 131] |
| < 100 | < 100 | Cc1nc2cnc3ccc(-c4cnc(N)c(C(F)(F)F)c4)nc3c2n1C1CCN(CCO)CC1 [Compound 129] |
| < 100 | < 100 | Cn1c(=O)n(-c2ccc(C(C)(C)C#N)nc2)c2c3cc(-c4cnc(N)nc4)ccc3ncc21 [Compound 42] |
| < 100 | < 100 | Cc1nc2cnc3ccc(-c4cnc(N)c(C(F)(F)F)c4)nc3c2n1C1CCN(C(=O)C2CC2)CC1 [Compound 119, (4-(8-(6-amino-5-(trifluoromethyl)pyridine-3yl)-2-methyl-1H-imidazo[4,5-c][1,5]naphthyridin-1-yl)piperidin-1-yl)(cyclopropyl)methanone] |
